Assay results from US12251373B2, “Compounds and methods of treating retinal degeneration” (CASE WESTERN RESERVE UNIVERSITY, priority 2017, dated 2025).

Legend:
P23H opsin = molecular target: T1, P23H opsin (Mus musculus, UniProt P15409, P23H); assay: Immunoblot of P23H opsin glycosylation in NIH3T3 cells; format: cell-based; set-up: key to Improved glycosylation: n = no; y = yes; conditions: for Improved glycosylation: P23H opsin; for glycosylation of P23H opsin (in words): immunoblot, PNGaseF, FIG. 3A-D
T1 construct: expressed in transfected cells
Protocol: NIH3T3-(P23H-opsin/GFP) or NIH3T3-(WT-opsin/GFP) cells were seeded in a 48-well plate (Corning Costar) at 3.2×10^5 cells per well and incubated at 37° C. with 5% CO2 for 2 h. One hundred-μL of assay medium containing a compound at 5× its final concentration was added to each well. The plate was gently shaken for 5 s before further incubation at 37° C. with 5% CO2 for 24 h. The assay medium then was aspirated, and cells were lysed with 100 μL per well PBS containing 0.1% Triton X-100 and complete protease inhibitor cocktail (Roche, Basel, Switzerland) followed by sonication for 3 s. Protein concentrations were determined with the Bradford assay. For PNGase F catalyzed deglycosylation, 3 μL of PNGase F (1,500 U, NEB) was added to the cell lysate and the mixture was incubated at room temperature for 1 h before immunoblotting. For NIH3T3-(P23H-opsin/GFP) cells, 15 μg of total protein were loaded per well onto an SDS-polyacrylamide gel; whereas for NIH3T3-(WT-opsin/GFP) cells, 10 μg of total protein was loaded per well. Opsin protein was immunostained with 0.2 μg mL^−1 horseradish peroxidase-conjugated 1D4 anti-rhodopsin antibody. Band intensities were measured with ImageJ software (http://imagej.nih.gov/ij/; National the Institutes of Health, Bethesda, MD, USA) and normalized to a glyceraldehyde 3-phosphate dehydrogenase (GAPDH) loading control.

mouse P23H opsin = molecular target: T2, mouse P23H opsin (Mus musculus, UniProt P15409, P23H); assay: Immunostain and image-based high-content analysis of P23H mutant opsin in NIH3T3 cells; format: cell-based; conditions: for effect on cell number: NIH3T3 cells, YC-001 up to 40 μM, 9-cis-retinal higher than 10 μM; for P23H opsin on the plasma membrane: dose-dependent, FIG. 2; for Immunostaining HCS MEM-Total ratio Max (fit) / EC50: ratio of P23H rod opsin fluorescence on plasma membrane to whole cell; for EC50: 1440 min, read-out: Immunostaining HCS MEM-Total ratio EC50
T2 construct: expressed in transfected cells
Text: Three NIH3T3 stable cell lines, NIH3T3-(WT-opsin/GFP), NIH3T3-(P23H-opsin/GFP), and NIH3T3-(GFP) were previously generated which stably express mouse WT opsin and GFP; P23H opsin and GFP; and only GFP, respectively. GFP is expressed separately from opsin in these cell lines. NIH3T3 cells were from ATCC. DNA constructs for generating these stable cell lines were confirmed by Sanger sequencing. Expression of GFP was confirmed by green fluorescence imaging, and expression of P23H and WT opsin were confirmed by immunoblots.
To characterize the effect of active compounds on the localization of P23H mutant opsin in mammalian cells, an image-based assay was used with cells immunostained for WT or P23H mutant opsin protein. Briefly, NIH3T3-(P23H-opsin/GFP) or NIH3T3-(WT-opsin/GFP) cells were seeded at 5,000 cells per well in a 384-well cell-carrier plate (PerkinElmer) and incubated at 37° C. with 5% CO2 for 2 h. Cells were treated with compounds as described for the β-Gal fragment complementation assay and incubated in assay medium for 24 h. The assay medium then was aspirated, and cells were fixed with 4% paraformaldehyde at 20 μL per well for 20 min at RT. Cells were immunostained in one of two ways: cell membranes were either permeabilized with 0.1% Triton X-100 for 15 min or left intact and then were incubated with 10% goat serum (Life Technologies). To detect opsin on the cell plasma membrane only, intact cells were immunostained with 20 μL per well of 20 μg mL^−1 B6-30 anti-rhodopsin antibody that recognizes the N-terminal epitope on the extracellular side of rhodopsin. To detect total opsin, cells were permeabilized with Triton X-100 and immunostained with 50 μg mL^−1 1D4 anti-rhodopsin antibody specific for the C-terminal epitope on the intracellular side of rhodopsin. Opsin immunostaining was visualized by incubating cells with 5 μg mL^−1 Cy3-conjugated goat anti-mouse IgG antibody. Three washes with phosphate-buffered saline (PBS: 10 mM Na2HPO4, 1.8 mM KH2PO4, pH 7.4, 137 mM NaCl, and 2.7 mM KCl) were performed between each step of incubation with antibody. In the last wash with PBS, DAPI was added to each well at 300 nM. Fluorescence images were obtained with the Operetta High Content Imaging System (PerkinElmer) using a 20× long objective. Five fields were taken of each well for cell images using three channels for fluorescence: GFP (100 ms), Cy3 (300 ms), and DAPI (50 ms). Images were analyzed with Acapella software from the Columbus data storage and analysis system (PerkinElmer). For cells immunostained with opsin on the non-permeabilized cell membrane only, an average of total fluorescence intensity of Cy3 per cell was used to quantify opsin in each well of the 384-well plate. For cells immunostained with opsin in permeabilized whole cells, an average ratio of Cy3 intensity on the cell plasma membrane (PM) to that of the entire cell (opsin ratio PM-to-total) was calculated for each well of a 384-well plate to quantify opsin transport to the plasma membrane. The plasma membrane was defined within ±5% of the cell border.

bovine opsin = molecular target: T3, bovine opsin (Bos taurus, UniProt P02699); assay: Isorhodopsin pigment regeneration of opsin in ROS disc membranes (absorption spectroscopy); format: biochemical; conditions: for competition with 9-cis-retinal for isorhodopsin regeneration (absorption at 495 nm): with 5 μM 9-cis-retinal, simultaneously or sequentially
T3 construct: ROS membranes were isolated from bovine retinas under dim red light; from tissue; host or cells: bovine retina rod outer segment (ROS) membranes, bleached with hydroxylamine
T3 sequence (P02699 whole entry): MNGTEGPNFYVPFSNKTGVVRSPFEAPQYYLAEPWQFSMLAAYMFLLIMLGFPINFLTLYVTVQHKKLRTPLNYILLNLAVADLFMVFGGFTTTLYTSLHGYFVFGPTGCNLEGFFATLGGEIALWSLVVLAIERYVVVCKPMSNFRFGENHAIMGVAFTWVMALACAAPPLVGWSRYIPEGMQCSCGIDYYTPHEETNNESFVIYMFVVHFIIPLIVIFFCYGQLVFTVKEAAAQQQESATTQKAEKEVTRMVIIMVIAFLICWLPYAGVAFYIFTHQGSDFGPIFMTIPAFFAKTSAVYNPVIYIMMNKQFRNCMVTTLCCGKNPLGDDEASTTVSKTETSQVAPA
Protocol: ROS membranes were isolated from bovine retinas under dim red light. To remove membrane associated proteins, ROS membranes were washed with a hypotonic buffer composed of 5 mM bis-tris propane (BTP) and 1 mM EDTA, pH 7.5, followed by gentle homogenization with subsequent centrifugation at 25,000 g for 30 min. This procedure was repeated four times. The final membrane pellet was suspended in 10 mM sodium phosphate buffer, pH 7.0, and 50 mM hydroxylamine to a 3 mg mL^−1 concentration of rhodopsin, placed on ice and illuminated with a 150 Watt bulb for 30 min. Membranes were pelleted by centrifugation at 16,000 g for 5 min and then washed four times with 10 mM sodium phosphate buffer, pH 7.0, and 2% bovine serum albumin followed by 4 washes with 10 mM sodium phosphate buffer, pH 7.0, and 2 washes with 20 mM BTP, pH 7.5, and 100 mM NaCl. The concentration of opsin was measured with a UV-visible spectrophotometer and quantified using the absorption coefficient ε280 nm=81,200 M^−1 cm^−1.
ROS membranes containing opsin were suspended in buffer composed of 20 mM BTP, pH 7.5, and 100 mM NaCl at a final concentration of 2.5 μM. […] Membranes then were solubilized with 20 mM DDM for 10 min at RT and UV-visible spectra of these samples were measured. To follow the kinetics of isorhodopsin regeneration, opsin membranes were treated with 0, 20 or 60 μM YC-001 for 15 min at RT. […] UV-visible spectra of the samples were measured every 2 min until 2 h of reaction time at RT. Each condition was repeated three times. The time course of isorhodopsin regeneration was fitted by a second order exponential decay and apparent half-lives were obtained at the time when reaction reached half of the end-point product.
Alternatively, opsin incubated with the above ligands was purified by 1D4-immunoaffinity chromatography. […] After washing, opsin samples were eluted by addition of 1D4 peptide ([…]) (SEQ ID NO: 1) to the above buffer and their spectra were measured with a UV-visible spectrophotometer.

SMILES	Improved glycosylation (P23H opsin)	glycosylation of P23H opsin (in words) (P23H opsin)	effect on cell number (mouse P23H opsin)	P23H opsin on the plasma membrane (mouse P23H opsin)	Immunostaining HCS MEM-Total ratio Max (fit) (mouse P23H opsin)	EC50 (mouse P23H opsin)	competition with 9-cis-retinal for isorhodopsin regeneration (absorption at 495 nm) (bovine opsin)	total amount of regenerated isorhodopsin pigment at the end of the reaction (bovine opsin; FIG. 4d)	kinetics of isorhodopsin pigment regeneration (bovine opsin; YC-001 then 9-cis-retinal, FIG. 4d)	reversibility of interaction with opsin (bovine opsin; after opsin/isorhodopsin purification)	ratio of P23H opsin stain in the ER region to total P23H opsin staining (mouse P23H opsin; FIG. 2M,N)
CC1=C(/C=C/C(C)=C\C=C\C(C)=C\C=O)C(C)(C)CCC1 [9-cis-retinal, reference compound]	y	improvement of glycosylation	killed most cells	increased	0.019	377 nM					
O=C(CCCCCN1C(=O)c2cccc3cccc(c23)C1=O)NO [Scriptaid, reference compound]	n	does not affect the glycosylation			0.070	380 nM	does not compete with 9-cis-retinal				
O=C1OCC(c2ccc(Cl)s2)=C1c1cccs1 [YC-001]	y	improvement of glycosylation	did not affect cell number	increased	0.030	2750 nM	less isorhodopsin was generated	didn't affect the total amount	slowed down the kinetics of pigment regeneration	reversible	decreased
